Measurements published in patent publication US10201523B2, “Use of wilforlide A for overcoming chemotherapy resistance” (WESTERN UNIVERSITY OF HEALTH SCIENCES, priority 2013, dated 2019).
“And” between values parts separate entries of the source, which are not always exact repeats. Identical values can stand only once. Like-named read-outs stand apart in the source and are kept apart here.

Experiments:
[1] = test system: DU145-TxR; assay: SRB cell viability assay, docetaxel with/without wilforlide A pretreatment; assay type: cell-based; conditions: DU145-TxR; for viability at 1 pM / viability at 0.0001 µM / viability at 0.000333 µM / viability at 0.001 µM / viability at 0.00333 µM / viability at 0.01 µM / viability at 0.0333 µM / viability at 0.1 µM: 72 h; for A at 565 nm: background = 0.046
Excerpt: FIG. 4 summarizes the data of Tables 18 and 19 in a graphical format.

[2] = test system: DU-145; assay: SRB cell viability assay, docetaxel IC50 with/without wilforlide A pretreatment; assay type: cell-based; conditions: for IC50: Homo sapiens
[3] = no wilforlide A pre-Tx, docetaxel 0.001 nM 72 h
[4] = no wilforlide A pre-Tx, docetaxel 0.1 nM 72 h
[5] = no wilforlide A pre-Tx, docetaxel 0.333 nM 72 h
[6] = no wilforlide A pre-Tx, docetaxel 1 nM 72 h
[7] = no wilforlide A pre-Tx, docetaxel 3.33 nM 72 h
[8] = no wilforlide A pre-Tx, docetaxel 10 nM 72 h
[9] = no wilforlide A pre-Tx, docetaxel 33.3 nM 72 h
[10] = no wilforlide A pre-Tx, docetaxel 100 nM 72 h
[11] = wilforlide A 2.5 μg/ml pre-Tx, docetaxel 0.001 nM 72 h
[12] = wilforlide A 2.5 μg/ml pre-Tx, docetaxel 0.1 nM 72 h
[13] = wilforlide A 2.5 μg/ml pre-Tx, docetaxel 0.333 nM 72 h
[14] = wilforlide A 2.5 μg/ml pre-Tx, docetaxel 1 nM 72 h
[15] = wilforlide A 2.5 μg/ml pre-Tx, docetaxel 3.33 nM 72 h
[16] = wilforlide A 2.5 μg/ml pre-Tx, docetaxel 10 nM 72 h
[17] = wilforlide A 2.5 μg/ml pre-Tx, docetaxel 33.3 nM 72 h
[18] = wilforlide A 2.5 μg/ml pre-Tx, docetaxel 100 nM 72 h

**Q.** How did the viability at 1 pM [1, 3] turn out when `CC(=O)O[C@@]12CO[C@@H]1C[C@H](O)[C@@]1(C)C(=O)[C@H](O)C3=C(C)[C@@H](OC(=O)[C@H](O)[C@@H](NC(=O)OC(C)(C)C)c4ccccc4)C[C@@](O)([C@@H](OC(=O)c4ccccc4)[C@H]21)C3(C)C` [docetaxel] was run?
**A.** 100%

**Q.** And the viability at 0.0001 µM [1, 4]?
**A.** 104%

**Q.** What about the viability at 0.000333 µM [1, 5] of the same compound?
**A.** 99%

**Q.** What about the viability at 0.001 µM [1, 6] of the same compound?
**A.** 98.2%

**Q.** What about the viability at 0.00333 µM [1, 7] of the same compound?
**A.** 98.5%

**Q.** And the viability at 0.01 µM [1, 8]?
**A.** 101%

**Q.** What about the viability at 0.0333 µM [1, 9] of the same compound?
**A.** 99.2%

**Q.** What about the viability at 0.1 µM [1, 10] of the same compound?
**A.** 97.4%

**Q.** And the viability at 1 pM [1, 11]?
**A.** 100%

**Q.** What about the viability at 0.0001 µM [1, 12] of the same compound?
**A.** 104%

**Q.** And the viability at 0.000333 µM [1, 13]?
**A.** 102%

**Q.** And the viability at 0.001 µM [1, 14]?
**A.** 104%

**Q.** What about the viability at 0.00333 µM [1, 15] of the same compound?
**A.** 98.4%

**Q.** What about the viability at 0.01 µM [1, 16] of the same compound?
**A.** 102%

**Q.** What about the viability at 0.0333 µM [1, 17] of the same compound?
**A.** 94.1%

**Q.** What about the viability at 0.1 µM [1, 18] of the same compound?
**A.** 44.7%

**Q.** What about the “mean A” value [1, 3] of the same compound?
**A.** 2.257

**Q.** And the “A at 565 nm” value [1, 3]?
**A.** 2.285 and 2.199 and 2.289

**Q.** And the “mean A” value [1, 4]?
**A.** 2.346

**Q.** What about the “A at 565 nm” value [1, 4] of the same compound?
**A.** 2.354 and 2.413 and 2.272

**Q.** What about the “mean A” value [1, 5] of the same compound?
**A.** 2.235

**Q.** What about the “A at 565 nm” value [1, 5] of the same compound?
**A.** 2.281 and 2.251 and 2.175

**Q.** And the “mean A” value [1, 6]?
**A.** 2.216

**Q.** What about the “A at 565 nm” value [1, 6] of the same compound?
**A.** 2.279 and 2.233 and 2.137

**Q.** And the “mean A” value [1, 7]?
**A.** 2.224

**Q.** What about the “A at 565 nm” value [1, 7] of the same compound?
**A.** 2.207 and 2.230 and 2.236

**Q.** And the “mean A” value [1, 8]?
**A.** 2.272

**Q.** And the “A at 565 nm” value [1, 8]?
**A.** 2.254 and 2.359 and 2.203

**Q.** And the “mean A” value [1, 9]?
**A.** 2.239

**Q.** What about the “A at 565 nm” value [1, 9] of the same compound?
**A.** 2.145 and 2.270 and 2.303

**Q.** And the “mean A” value [1, 10]?
**A.** 2.198

**Q.** And the “A at 565 nm” value [1, 10]?
**A.** 2.153 and 2.224 and 2.217

**Q.** And the “mean A” value [1, 11]?
**A.** 2.137

**Q.** What about the “A at 565 nm” value [1, 11] of the same compound?
**A.** 2.092 and 2.151 and 2.170

**Q.** What about the “mean A” value [1, 12] of the same compound?
**A.** 2.220

**Q.** What about the “A at 565 nm” value [1, 12] of the same compound?
**A.** 2.248 and 2.263 and 2.151

**Q.** And the “mean A” value [1, 13]?
**A.** 2.169

**Q.** What about the “A at 565 nm” value [1, 13] of the same compound?
**A.** 2.187 and 2.102 and 2.218

**Q.** What about the “mean A” value [1, 14] of the same compound?
**A.** 2.217

**Q.** What about the “A at 565 nm” value [1, 14] of the same compound?
**A.** 2.177 and 2.229 and 2.246

**Q.** And the “mean A” value [1, 15]?
**A.** 2.103

**Q.** And the “A at 565 nm” value [1, 15]?
**A.** 2.064 and 2.090 and 2.155

**Q.** And the “mean A” value [1, 16]?
**A.** 2.176

**Q.** And the “A at 565 nm” value [1, 16]?
**A.** 2.171 and 2.204 and 2.155

**Q.** What about the “mean A” value [1, 17] of the same compound?
**A.** 2.011

**Q.** What about the “A at 565 nm” value [1, 17] of the same compound?
**A.** 2.086 and 2.018 and 1.930

**Q.** What about the “mean A” value [1, 18] of the same compound?
**A.** 0.956

**Q.** What about the “A at 565 nm” value [1, 18] of the same compound?
**A.** 0.987 and 0.926 and 0.957

**Q.** What about the IC50 ([2]; 72 h, read-out: Drug IC50 no pre-Tx) of the same compound?
**A.** > 0.1 µM

**Q.** And the IC50 ([2]; wilforlide A 2.5 μg/ml pre-Tx, read-out: Drug IC50 after wilforlide A pre-Tx)?
**A.** 0.0425 µM

**Q.** What about the CE ([2]; chemosensitization effect, wilforlide A 2.5 μg/ml pre-Tx) of the same compound?
**A.** >2.35
